Test results as given in US20080076664A1, “Fungicidal Compositions” (priority 2004, published 2008).
Values joined by “and” are separate entries in the source; they are usually repeats but may differ in a detail not shown here. Equal values may be shown once.

Experiments:
Alternaria solani = test: Fungal growth assay, control of Alternaria solani (Example B-4 a); assay type: cell-based
Description: (§1) The action to be expected E for a given active ingredient combination obeys the so-called COLBY formula and can be calculated as follows (COLBY, S. R. “Calculating synergistic and antagonistic responses of herbicide combination”. Weeds, Vol. 15, pages 20-22; 1967):
(§2) According to COLBY, the expected (additive) action of active ingredients A)+B) using p+q ppm of active ingredient is
(§3) If the action actually observed (O) is greater than the expected action (E), then the action of the combination is super-additive, i.e. there is a synergistic effect. In mathematical terms the synergism factor SF corresponds to O/E. In the agricultural practice an SF of ≧1.2 indicates significant improvement over the purely complementary addition of activities (expected activity), while an SF of ≦0.9 in the practical application routine signals a loss of activity compared to the expected activity.
(§4) Conidia—harvested from a freshly grown colony—of the fungus were directly mixed into nutrient broth (PDB potato dextrose broth). After placing a (DMSO) solution of the test compounds into a microtiter plate (96-well format) the nutrient broth containing the fungal spores was added. […] The fungicide interactions in the combinations are calculated according to COLBY method.

Leptosphaeria nodorum = test: Fungal growth assay, control of Leptosphaeria nodorum (Example B-8); assay type: cell-based
Description: as §1, §2, §3
Action Against Leptosphaeria nodorum (Glume Blotch)—Fungal Growth Assay
as §4, with “Conidia of” for “Conidia—harvested from a freshly grown colony—of”, “fungus from cryogenic storage” for “fungus”

[1] = component B) alone, 0.007 ppm [mg/L]
[2] = component B) alone, 0.002 ppm [mg/L]
[3] = component B) alone, 0.022 ppm [mg/L]
[4] = component B) alone, 0.600 ppm [mg/L]
[5] = component B) alone, 0.067 ppm [mg/L]
[6] = Cpd Ia alone, 0.0001 ppm [mg/L]
[7] = Cpd Ia alone, 0.0003 ppm [mg/L]
[8] = Cpd Ia alone, 0.0074 ppm [mg/L]

| SMILES | Observed control in % (% Cobs) (Alternaria solani; [1]) | Observed control in % (% Cobs) (Leptosphaeria nodorum; [2]) | Observed control in % (% Cobs) (Leptosphaeria nodorum; [3]) | Observed control in % (% Cobs) (Alternaria solani; [2]) | Observed control in % (% Cobs) (Alternaria solani; [4]) | Observed control in % (% Cobs) (Leptosphaeria nodorum; [1]) | Observed control in % (% Cobs) (Leptosphaeria nodorum; [5]) | Observed control in % (% Cobs) (Alternaria solani; [3]) | Observed control in % (% Cobs) (Alternaria solani; [5]) | also measured |
| --- | --- | --- | --- | --- | --- | --- | --- | --- | --- | --- |
| CCCC1COC(Cn2cncn2)(c2ccc(Cl)cc2Cl)O1 (stereo not drawn) [Propiconazole] | 0% | 12% | 11% | – | – | – | – | – | – | – |
| N#Cc1c(Cl)c(Cl)c(Cl)c(C#N)c1Cl [Chlorotalonil, Chlorothalonil] | – | 1% | 0% | 9% | 6% | 0% | 6% | – | – | – |
| CO/C=C(/C(=O)OC)c1ccccc1Oc1cc(Oc2ccccc2C#N)ncn1 [Azoxystrobin] | – | 5% | – | – | – | 14% | – | 0% | 31% | – |
| CC(C1CC1)C(O)(Cn1cncn1)c1ccc(Cl)cc1 (stereo not drawn) [Cyproconazole] | 0% | 3% | – | 3% | 15% | 0% | 4% | – | – | – |
| Cn1cc(C(=O)Nc2ccccc2-c2ccc(C#CC(C)(C)C)cc2)c(C(F)F)n1 [Cpd Ia] | – | – | – | – | – | – | – | – | – | Observed control in % (% Cobs) (Alternaria solani; [6]): 6% and 0%; Observed control in % (% Cobs) (Alternaria solani; [7]): 6% and 0% and 4%; Observed control in % (% Cobs) (Alternaria solani; Cpd Ia alone, 0.0008 ppm [mg/L]): 0%; Observed control in % (% Cobs) (Alternaria solani; [8]): 40% and 46% and 27%; Observed control in % (% Cobs) (Alternaria solani; Cpd Ia alone, 0.0667 ppm [mg/L]): 50% and 60%; Observed control in % (% Cobs) (Leptosphaeria nodorum; [6]): 0% and 2%; Observed control in % (% Cobs) (Leptosphaeria nodorum; [7]): 0%; Observed control in % (% Cobs) (Leptosphaeria nodorum; Cpd Ia alone, 0.0025 ppm [mg/L]): 0%; Observed control in % (% Cobs) (Leptosphaeria nodorum; [8]): 0%; Observed control in % (% Cobs) (Leptosphaeria nodorum; Cpd Ia alone, 0.0222 ppm [mg/L]): 9% and 0% and 5% and 6%; Observed control in % (% Cobs) (Leptosphaeria nodorum; Cpd Ia alone, 0.2000 ppm [mg/L]): 32% and 30% |
| Cc1cc(C2CC2)nc(Nc2ccccc2)n1 [Cyprodinil] | 0% | – | – | 3% | – | – | – | 0% | 30% | – |
| N#Cc1c[nH]cc1-c1cccc2c1OC(F)(F)O2 [Fludioxonil] | 0% | 7% | – | 0% | – | – | 9% | 0% | 25% | – |
| CC(Cc1ccc(C(C)(C)C)cc1)CN1CCCCC1 (stereo not drawn) [Fenpropidin] | – | – | 0% | 0% | 0% | 4% | – | – | 0% | – |
